{
  "source": "paper PMC4157036",
  "about": "“Does Long-Term Administration of a Beta-Blocker (Timolol) Induce Fibril-Based Cataract Formation In-vivo?” (Iranian Journal of Pharmaceutical Research : IJPR, 2014)",
  "target": "T1, bovine α-crystallin (Bos taurus, UniProt P02470+P02510)",
  "T1 construct": "gene CRYAA; native hetero-oligomer purified from bovine lenses (cows under two years), mixture of alphaA and alphaB subunits at about 3:1; no tag",
  "T1 sequence (P02470 1-173)": "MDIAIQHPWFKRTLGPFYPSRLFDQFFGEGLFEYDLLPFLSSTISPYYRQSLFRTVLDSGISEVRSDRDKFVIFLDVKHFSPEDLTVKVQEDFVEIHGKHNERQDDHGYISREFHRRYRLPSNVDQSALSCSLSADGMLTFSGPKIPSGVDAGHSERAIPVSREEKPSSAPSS",
  "T1 sequence (P02510 1-175)": "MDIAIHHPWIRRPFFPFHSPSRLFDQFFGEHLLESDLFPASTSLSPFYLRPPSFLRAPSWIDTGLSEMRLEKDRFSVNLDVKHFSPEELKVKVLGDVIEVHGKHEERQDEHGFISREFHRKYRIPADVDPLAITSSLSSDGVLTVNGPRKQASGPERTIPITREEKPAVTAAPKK",
  "assay": "turbidity at […] nm of GdnHCl-induced aggregation at […] °C",
  "settings": "5 µM timolol, protein 0.6 mg/mL, 0.1 M phosphate pH 7.4, 60 °C, enhancer of aggregation, direct binding not measured",
  "data": [
    {"compound": "CC(C)(C)NC[C@H](O)COc1nsnc1N1CCOCC1", "note": "[timolol]", "values": [
      {"measurement": "aggregation extent (fold)", "value": "~ 3 fold"}
    ]}
  ]
}
